According to US12144344B2, “Compositions and methods for modulating root growth” (DUKE UNIVERSITY, priority 2018, dated 2024):

Tests used:
[1] = tested on: lateral root clock (pDR5:LUC); assay: Lateral root clock oscillation amplitude (pDR5:LUC reporter); format: in vivo, Arabidopsis thaliana; conditions: for amplitude of the lateral root clock relative to D15 treatment (rescue of D15 inhibition of lateral root initiation): roots treated with D15 for several days, then 10 μM apocarotenoid added, FIG. 4A
Arabidopsis roots = assay: Merocyanine aldehyde RBP reporter fluorescence in Arabidopsis roots; format: in vivo, Arabidopsis thaliana; conditions: D15 treatment
Arabidopsis tissue = assay: Extraction, derivatization and HPLC-MS analysis of apocarotenoid levels in plant tissue upon D15 treatment; format: in vivo, Arabidopsis thaliana; conditions: D15 treated plants, whole plant; FIG. 2B
Arabidopsis thaliana = assay: Root phenotyping: primary root growth, lateral root capacity/branching, lateral root primordia; format: in vivo
CCD8 = molecular target: T1, CCD8 (Arabidopsis thaliana, UniProt Q8VY26); conditions: stated as known; cited from earlier work
T1 sequence (Q8VY26 57-570): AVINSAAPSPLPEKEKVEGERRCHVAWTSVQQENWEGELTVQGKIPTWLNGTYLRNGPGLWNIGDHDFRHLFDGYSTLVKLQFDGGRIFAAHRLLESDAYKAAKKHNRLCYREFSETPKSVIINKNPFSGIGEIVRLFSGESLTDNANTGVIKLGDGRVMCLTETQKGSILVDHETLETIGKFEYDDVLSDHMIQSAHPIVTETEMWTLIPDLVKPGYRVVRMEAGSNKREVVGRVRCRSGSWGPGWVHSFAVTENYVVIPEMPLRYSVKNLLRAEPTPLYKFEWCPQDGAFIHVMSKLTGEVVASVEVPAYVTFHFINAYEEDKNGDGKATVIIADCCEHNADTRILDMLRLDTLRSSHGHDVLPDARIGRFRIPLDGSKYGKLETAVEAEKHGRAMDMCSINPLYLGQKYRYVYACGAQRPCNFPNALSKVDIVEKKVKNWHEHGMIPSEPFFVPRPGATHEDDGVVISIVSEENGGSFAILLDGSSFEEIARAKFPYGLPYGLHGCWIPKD

[2] = co-treatment with 500 nM Apo14 and D15, FIG. 4B
[3] = co-treatment with 1 μM retinal and 125 μM D15, FIG. 4C

Molecule: CC1=C(/C=C/C(C)=C/C=C/C(C)=C/C=C/C=C(C)/C=C/C=O)C(C)(C)CCC1 [Apo-10-carotenal, apo-10-carotenal]
- amplitude of the lateral root clock relative to D15 treatment (rescue of D15 inhibition of lateral root initiation) [1]: partially rescue

Molecule: N-(4-fluorobenzyl)-methoxycinnamic hydroxamic acid [D15]
- merocyanine aldehyde fluorescence in the root meristem (Arabidopsis roots): reduced
- number of merocyanine aldehyde pulses (Arabidopsis roots; elongation and differentiation zones, FIG. 1E): significantly reduced
- levels of more hydrophilic apocarotenoids such as beta-cyclocitral and beta-ionone (Arabidopsis tissue): did not affect
- levels of retinal as well as the related apocarotenoids (Arabidopsis tissue): reduced
- amplitude of oscillations in pDR5:LUC marker line ([1]; D15-treated plants, FIG. 3): significantly decreased
- root growth and lateral root organogenesis (Arabidopsis thaliana; D15 treatment): defects
- CCD8 inhibition (CCD8): can inhibit

Molecule: CC1=C(/C=C/C(C)=C/C=C/C(C)=C/C=C/C=O)C(C)(C)CCC1 [Apo14, apo-14-carotenal]
- amplitude of the lateral root clock relative to D15 treatment (rescue of D15 inhibition of lateral root initiation) [1]: significantly increased
- rescue of D15 inhibition of lateral root development (lateral root capacity) (Arabidopsis thaliana; [2]): fully rescue
- rescue of D15 inhibition of primary root growth (Arabidopsis thaliana; [2]): fully rescue

Molecule: CC1=C(/C=C/C(C)=C/C=C/C(C)=C/C=C/C=C(\C)C=O)C(C)(C)CCC1 [apo-12-carotenal]
- amplitude of the lateral root clock relative to D15 treatment (rescue of D15 inhibition of lateral root initiation) [1]: partially rescue

Molecule: CC1=C(/C=C/C(C)=C/C=C/C(C)=C/C=O)C(C)(C)CCC1 [retinal, apo-16-carotenal]
- amplitude of the lateral root clock relative to D15 treatment (rescue of D15 inhibition of lateral root initiation) [1]: significantly increased
- rescue of D15 inhibition of lateral root development (lateral root branching) (Arabidopsis thaliana; [3]): fully rescue
- rescue of D15 inhibition of primary root growth (Arabidopsis thaliana; [3]): fully rescue
- primary root length (Arabidopsis thaliana; retinal alone, absence of D15): did not affect
- number of lateral root primordia (Arabidopsis thaliana; retinal alone, absence of D15, FIG. 4D): significantly increase
